Literature values, collected in patent US10953021B2, “Topical compositions of flunisolide and methods of treatment” (Lupin Limited, priority 2013, dated 2021).

Tests used:
[1] = animal anti-inflammatory assays, versus cortisol
[2] = McKenzie skin blanching test, versus dexamethasone

SMILES: CC1(C)O[C@@H]2C[C@H]3[C@@H]4C[C@H](F)C5=CC(=O)C=C[C@]5(C)[C@H]4[C@@H](O)C[C@]3(C)[C@]2(C(=O)CO)O1 [Flunisolide, 6α-fluoro-11β, 21-dihydroxy-16α,17α-(isopropylidenedioxy)pregna-1,4-diene-3,20-dione]
- anti-inflammatory potency relative to cortisol [1]: several hundred times more potent than cortisol
- anti-inflammatory effects relative to dexamethasone [2]: several hundred times more potent than dexamethasone
